Measured values taken from a melting point compilation (Tetko et al.; mined from patent text by program, amines drawn as free bases though some values may be those of a salt).

Point of comparison: `COc1ccc(Cn2c(=O)c(C(=O)NC3CCCCC3)c(O)c3cc(F)cnc32)cc1`, melting point 176 °C. Against it:
- CC(C)C(C#N)c1ccc(OCc2ccccc2)c(OCc2ccccc2)c1 (stereo not given) — lower, 75 to 76 °C
- COC(=O)c1ccc2c(c1)c(Cc1ccc(C(=O)O)cc1OC)cn2C — higher, 228 to 230 °C
- CN1CN(C)c2nc3n(Cc4ccccc4)c(=O)c(Cc4ccccc4)c(O)n3c2C1=O — not separable, 176 to 179 °C
- O=C1N=NC(CO)=C1c1ccccc1 — lower, 165 to 168 °C
- COc1ccccc1N1CCN(CCCNC(=O)c2cccc3c(=O)cc(-c4ccccc4)sc23)CC1 — lower, 144 to 146 °C
- C(=N\c1c(-c2ccccc2)cc(-c2ccccc2)cc1-c1ccccc1)/c1ccccn1 — lower, 141 to 144 °C
- CC(C)NC(=O)C1=C(C(=O)Nc2ccc(Cl)cc2F)CCCC1 — higher, 188 to 189 °C
- CC(=Cc1ccc(Oc2cccnc2)cc1)C(=O)O — higher, 191 to 194 °C
- CC(COc1ccccc1)C1CC=C2C3=C(CCC21C)C1(C)CCC(O)C(C)(C)C1CC3 (stereo not given) — lower, 134 to 137 °C
- CCn1nc(C)c(-c2ccc3c(c2)NC(=O)CO3)c1-c1ccc(F)cc1 — lower, 161 °C
- CCc1nc2c(-c3cc4c(cc3C)OCC4)ncnc2n1C(C1CC1)C1CC1 — lower, 147 to 148 °C
- COc1ccc(-c2nn(Cc3ccc(Cl)cc3)c(=S)cc2-c2ccncc2)cc1 — lower, 144 to 145 °C
- CCc1nnc2n1-c1ccc(I)cc1C(c1ccccc1F)=NC2 — higher, 209 to 211 °C
- CC(C)C(=O)NC1=NC(=CCC(=O)Nc2ccc(Cl)cc2)CS1 — lower, 112 to 114 °C
- Cc1cccc(NC(=O)c2nc(-c3ccccc3)c3ccccc3c2O)n1 — higher, 261 to 263 °C
- O=C1N(CO)OCCN1c1ccc(Cl)c(Cl)c1 — lower, 134 °C
- CCNC(=S)N(CC)c1ccc(Cl)nc1 — lower, 84 to 86 °C
- CCOC(=O)C1C(=O)C(C(=O)c2ccc(Cl)cc2[N+](=O)[O-])C(=O)CC1CC(C)SCC (stereo not given) — lower, 102 to 104 °C
- CCC(=O)c1cc(Br)no1 — lower, 35 to 37 °C
- CC(C)c1ccc2[nH]c(C(=O)c3ccc(Cl)cc3)c(CC(=O)O)c2c1 — higher, 197 to 200 °C
- CN(C)C1(c2ccccc2)CCC(CNC(=O)N2CCC(c3c[nH]c4ccc(F)cc34)CC2)CC1 (stereo not given) — lower, 95 to 98 °C
- O=C(CC1CCC1)N[C@H]1CC[C@H](CCN2CCN(c3nccc4c3CCO4)CC2)CC1 — higher, 193 °C
- COc1c(C)c2c(c(N)c1C/C=C(\C)CCC(=O)O)C(=O)OC2 — lower, 130 to 131 °C
- COc1ccc(-n2nc(Sc3cccc(Cl)c3)c(C)c(C#N)c2=O)cc1 — lower, 123 to 124 °C
- CCC12CCC3c4ccc(OC)cc4C(C)CC3C1CCC2O (stereo not given) — lower, 150 to 160 °C
- CCOC(=O)c1c(Br)cnn1-c1c(Cl)cccc1Cl — lower, 62 to 65 °C
- CCCN(CCC)C(=O)CNc1nc(-c2ccccc2)ncc1N — lower, 120 to 122 °C
- COc1cc2ncnc(N3CCN(C(=S)Nc4ccc(Cc5ccncc5)cc4)CC3)c2cc1OC — higher, 198 to 200 °C
- CCCc1nsc(N=C(Cl)N(C)C)c1C#N — lower, 108 to 109 °C
- CS(=O)Cc1ccc2oc([N+](=O)[O-])c(-c3ccccc3)c2c1 (stereo not given) — lower, 162 to 165 °C
- COC(=O)c1ccc(CCNCC(O)c2ccccc2)cc1 (stereo not given) — lower, 105 to 106 °C
- Cc1ncc2c(c1O)COC2S(C)(=O)=O (stereo not given) — higher, 205 to 206 °C
- O[C@@H]1CCC(c2ccccc2)(c2ccccc2)[C@@H]2CN(Cc3ccccc3)C[C@H]12 — lower, 154 °C
- COCC(O)c1nc2cc(Cl)ccc2c(O)c1C(=O)Nc1nccs1 (stereo not given) — higher, > 270 °C
- CCOC(=O)Oc1cc(OC)cc(OC)c1C(=O)C=Cc1ccc(OC)cc1 — lower, 107 °C
- COCc1nc2c(OC)ccc(CCc3ccncc3)c2[nH]1 — lower, 154 to 156 °C
- CCC1OC(Cn2cncn2)(c2ccc(Cl)cc2Cl)OC1C (stereo not given) — lower, 109 to 113 °C
- C#Cc1cn(C2CC(OC(C)=O)C(COC(C)=O)O2)c(=O)[nH]c1=O (stereo not given) — lower, 152 to 154 °C
- C=C[C@@H]1Oc2ccccc2[C@H]1CC(=O)O (relative stereo) — lower, 79 to 81 °C
